Experimental data published in patent EP4501112A1, “PLANT DEFENSE ELICITORS” (Globachem NV, priority 2023, dated 2025).
Where two headings read alike, the source gives them in different places.

How the values were obtained:
[1] = test system: Cacopsylly pyri; experiment: Field trial, foliar spray against C. pyri on pear trees; type: in vivo; settings: 650 g/ha
From the text: DISEASE/PEST: Cacopsylly pyri CROP: Pear trees (pyrus communis spp. Williams) APPLICATION: Foliar spray (spring - when 50% of eggs are yellow) EXPERIMENT/TRIAL PROTOCOL: Foliar spray was applied in the field with a motorized sprayer (OleomacSP126) in spring when the insects appeared on the crop (BBCH 72-75). The trial design consisted of a randomized complete block with 4 replications per treatment. The treated area per plot was 24m^2. Used water volume was […]/ha. Evaluation was done by counting nymphs per 10 shoots. […] This is due to the effect on the plant's immune system. […] Table 6. Efficacy assessment: % efficacy versus untreated (%UNCK) of C. pyri on P. communis (field)

[2] = test system: S. avenae; experiment: Aphid survival and sucking on untreated leaves after treating one leaf of Chinese cabbage; type: in vivo; parameters: key to S. avenae sucking: 0=no damage or no sucking observed; 1=some damage or some sucking observed; 3=half leaf eaten or half of aphids sucking the leaf; 5=no leaf left or all insects sucking and reproducing; settings: for S. avenae sucking: scale 0 - 5
[3] = test system: Plutella xylostella; experiment: P. xylostella survival and leaf damage on untreated leaves after treating one leaf of Chinese cabbage; type: in vivo; parameters: key to P. xylostella leaf damage: 0=no damage or no sucking observed; 1=some damage or some sucking observed; 3=half leaf eaten or half of aphids sucking the leaf; 5=no leaf left or all insects sucking and reproducing; settings: for P. xylostella leaf damage: damage scale 0 - 5
Procedure: DISEASE/PEST: Plutella xylostella / Myzus persicae CROP: Chinese cabbage (Brassica rapa subsp. Pekinensis) APPLICATION: FOLIAR on one leaf of the plant EXPERIMENT/TRIAL PROTOCOL: […] Leaves were left to dry for 1 hour. P. xylostella or M. persicae were added to clip cages on non-treated leaves 1 hour or 24 hours after the applied treatment wherein those cages restrict the movement of the insects to the other leaves. Table 2. Effect on survival and leaf damage of P. xylostella and […] on untreated leaves of […].

[4] = test system: S. exigua; experiment: Direct feeding of pelargonic acid (comparative example 1c); type: in vivo; settings: Table 3 is an image
From the text: Example 1c. Direct effect pelargonic acid (Comparative example) [table]

[5] = test system: Maize (cultivar Mofox); experiment: Abiotic stress (flooding, drought, daily watered) growth trial on maize, foliar treatment
[6] = test system: Root knot nematode (Meloidogyne graminicola); experiment: Root knot nematode gall development on wheat roots after treatment; type: in vivo; settings: foliar spraying, stock solution 200 x diluted; 400 J2 per plant 24 hours after treatment; 14 days after inoculation
Procedure: DISEASE/PEST: Root knot nematode (Meloidogyne graminicola) CROP: Triticum aestivum APPLICATION: Foliar application EXPERIMENT/TRIAL PROTOCOL: After seed germination, wheat plants were grown individually for 2 weeks in a PVC tube (18 cm height, 3 cm diameter) filled with a substrate of sand and a water-absorbing polymer (DCM Aquaperla). Plants were grown at 24 °C and supplied with Hoagland solution and water 3 times per week. They were treated after 2 weeks. Twenty-four hours after treatment they were inoculated with 400 nematode juveniles (second stage; J2) per plant. 8 individual plants were analyzed per treatment. Evaluation of nematode infection was done 14 days after inoculation. Development of galls on the roots was microscopically observed and counted. No females were observed yet at this early time point, in any of the treatments. The number of galls was reduced in the […], pelargonic acid ([…] decanoic acid (pm4) treated plants. Azelaic acid (pm3) had no effect on gall numbers in the used concentration. FORMULATION USED: […] PM1 is already formulated.

[7] = test system: Leptosphaeria maculans; experiment: Seed treatment lab trial against Leptosphaeria maculans in oilseed rape seedlings; type: in vivo; settings: Plenodomus lingam, in Brassica napus, 144 h, 6 days after inoculation, read-out: % Efficacy
From the text: [table] Table 8: Efficacy assessment of fatty acids in seed treatment of Leptosphaeria maculans in oilseed rape (variety Helga)

[8] = test system: Phytophthora infestans (PHYTIN); experiment: whole plant or invertebrate; type: in vivo; settings: in Solanum tuberosum, foliar
[9] = 0.78 mg on one leaf, insects added 1h after treatment, 6 DAT
[10] = 0.78 mg on one leaf, insects added 1h after treatment, 24h AT
[11] = 0.78 mg on one leaf, insects added 24 h after treatment, 6 DAT
[12] = 0.78 mg on one leaf, insects added 24 h after treatment, 24h AT
[13] = daily watered (normal) conditions, foliar 65 g/ha
[14] = daily watered (normal) conditions, foliar 325 g/ha
[15] = daily watered (normal) conditions, foliar 650 g/ha
[16] = daily watered (normal) conditions, foliar 1300 g/ha
[17] = drought conditions, foliar 65 g/ha
[18] = drought conditions, foliar 325 g/ha
[19] = drought conditions, foliar 650 g/ha
[20] = drought conditions, foliar 1300 g/ha
[21] = flooding conditions, foliar 65 g/ha
[22] = flooding conditions, foliar 325 g/ha
[23] = flooding conditions, foliar 650 g/ha
[24] = flooding conditions, foliar 1300 g/ha

CCCCCCCCC(=O)O [Pelargonic acid, pelargonic acid]
% efficacy versus untreated (%UNCK) of C. pyri on P. communis (field) ([1]; 14 DAA): 56.4 b %
% efficacy versus untreated (%UNCK) of C. pyri on P. communis (field) ([1]; 21 DAA): 63.1 b %
% efficacy versus untreated (%UNCK) of C. pyri on P. communis (field) ([1]; 28 DAA): 100 b %
% efficacy versus untreated (%UNCK) of C. pyri on P. communis (field) ([1]; 800L/ha water, 3 DAA): 83.8 b %
S. avenae sucking [2, 9]: 4
S. avenae sucking [2, 10]: 0
S. avenae sucking [2, 11]: 1
S. avenae sucking [2, 12]: 4
S. avenae survival ([2]; 0.78 mg on one leaf, insects on non-treated leaves, added 24 h after treatment, 6 DAT): Very small colony
number of S. avenae individuals and sucking ([2]; 0.78mg, insects introduced 24h after treatment to an untreated leaf of the same plant): reduction
P. xylostella leaf damage [3, 9]: 1
P. xylostella leaf damage [3, 10]: 1
P. xylostella leaf damage [3, 11]: 5
P. xylostella leaf damage [3, 12]: 4
P. xylostella survival ([3]; 0.78 mg on one leaf, insects on non-treated leaves, added 1h after treatment, 6 DAT): growth limited to L3 stage
larval maturation and leaf damage in P. xylostella ([3]; 0.78mg, insects introduced 1h after treatment to an untreated leaf of the same plant): reduction
direct control of S. exigua [4]: no direct control
% total growth to control [5, 13]: 71%
ASSESSMENT total growth after 15 days (cm) [5, 13]: 18.4 cm
% total growth to control [5, 14]: 87%
ASSESSMENT total growth after 15 days (cm) [5, 14]: 22.5 cm
% total growth to control [5, 15]: 95%
ASSESSMENT total growth after 15 days (cm) [5, 15]: 24.8 cm
% total growth to control [5, 16]: 78%
ASSESSMENT total growth after 15 days (cm) [5, 16]: 20.3 cm
% total growth to control [5, 17]: 87%
ASSESSMENT total growth after 15 days (cm) [5, 17]: 17.4 cm
% total growth to control [5, 18]: 87%
ASSESSMENT total growth after 15 days (cm) [5, 18]: 17.6 cm
% total growth to control [5, 19]: 112%
ASSESSMENT total growth after 15 days (cm) [5, 19]: 22.2 cm
% total growth to control [5, 20]: 91%
ASSESSMENT total growth after 15 days (cm) [5, 20]: 18.2 cm
% total growth to control [5, 21]: 104%
ASSESSMENT total growth after 15 days (cm) [5, 21]: 26.3 cm
% total growth to control [5, 22]: 104%
ASSESSMENT total growth after 15 days (cm) [5, 22]: 26.1 cm
% total growth to control [5, 23]: 90%
ASSESSMENT total growth after 15 days (cm) [5, 23]: 22.6 cm
% total growth to control [5, 24]: 82%
ASSESSMENT total growth after 15 days (cm) [5, 24]: 20.7 cm
number of galls [6]: reduced
Emax ([7]; seed treatment 0.76 g/ton, % healthy plants vs infected seedlings): 100%
Emax ([7]; seed treatment 3.04 g/ton): 80%
Emax ([7]; seed treatment 6.08 g/ton): 80%
Emax ([7]; seed treatment 7.60 g/ton): 100%
% efficacy ([8]; read-out: ASSESSMENT 7 DAI (% efficacy), foliar 0.76 g/ha): 0.2%
% efficacy ([8]; read-out: ASSESSMENT 7 DAI (% efficacy), foliar 1.14 g/ha): 14%
% efficacy ([8]; read-out: ASSESSMENT 7 DAI (% efficacy), foliar 1.52 g/ha): 20.1%
% efficacy ([8]; read-out: ASSESSMENT 7 DAI (% efficacy), foliar 2.66 g/ha): 23%
% efficacy ([8]; read-out: ASSESSMENT 7 DAI (% efficacy), foliar 3.80 g/ha): 18.6%
% efficacy ([8]; read-out: ASSESSMENT 7 DAI (% efficacy), foliar 5.32 g/ha): 17.7%
% efficacy ([8]; read-out: ASSESSMENT 7 DAI (% efficacy), foliar 7.60 g/ha, inoculated 7 days after treatment): 3%
% efficacy ([8]; read-out: ASSESSMENT 14 DAI (% efficacy), foliar 0.76 g/ha): 0%
% efficacy ([8]; read-out: ASSESSMENT 14 DAI (% efficacy), foliar 1.14 g/ha): 7.9%
% efficacy ([8]; read-out: ASSESSMENT 14 DAI (% efficacy), foliar 1.52 g/ha): 22%
% efficacy ([8]; read-out: ASSESSMENT 14 DAI (% efficacy), foliar 2.66 g/ha): 21.9%
% efficacy ([8]; read-out: ASSESSMENT 14 DAI (% efficacy), foliar 3.80 g/ha): 7%
% efficacy ([8]; read-out: ASSESSMENT 14 DAI (% efficacy), foliar 5.32 g/ha): 16.7%
% efficacy ([8]; read-out: ASSESSMENT 14 DAI (% efficacy), foliar 7.60 g/ha): 5.4%
